Reference: US8772509B2, “Indole compounds as positive allosteric modulators of the muscarinic receptor” (Vanderbilt University, priority 2010, dated 2014)

Target: T1, mAChR M1 (UniProt P08482)
T1 sequence (P08482 1-460): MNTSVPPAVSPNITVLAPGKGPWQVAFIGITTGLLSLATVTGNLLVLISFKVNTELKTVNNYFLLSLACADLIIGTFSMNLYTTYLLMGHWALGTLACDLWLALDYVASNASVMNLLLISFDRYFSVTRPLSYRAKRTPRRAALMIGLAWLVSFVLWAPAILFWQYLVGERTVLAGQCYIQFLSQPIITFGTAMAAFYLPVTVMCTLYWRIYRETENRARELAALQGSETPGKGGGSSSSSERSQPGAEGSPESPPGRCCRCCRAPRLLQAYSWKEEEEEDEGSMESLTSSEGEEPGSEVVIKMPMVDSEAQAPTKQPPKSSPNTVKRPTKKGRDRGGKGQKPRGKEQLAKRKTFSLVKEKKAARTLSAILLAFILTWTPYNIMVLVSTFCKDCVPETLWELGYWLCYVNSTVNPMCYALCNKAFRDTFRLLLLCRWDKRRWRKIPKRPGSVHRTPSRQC
Assay: mAChR M1 cell-based functional assay (calcium mobilization, Fluo-4, FDSS)
Conditions: for EC50: positive allosteric modulation of EC20 acetylcholine response, CHO-K1 cells expressing mAChR M1, read-out: Potency (EC50); for Efficacy (% ACh maximum at 30 μM): maximal calcium flux response from curve fit or response at 30 μM compound, as % of the EC80 ACh response
Description: Chinese hamster ovary (CHO-K1) cells stably expressing rat (r)M1 were purchased from the American Type Culture Collection and cultured according to their indicated protocol. […] To make stable rM2, hM2, rM3, hM4, and rM4 cell lines for use in calcium mobilization assays, these cells also were stably transfected with a chimeric G-protein (Gqi5) (provided by B. R. Conklin, University of California, San Francisco) using Lipofectamine 2000. rM1, hM1, rM3, hM3, rM5, and hM5 cells were grown in Ham's F-12 medium containing 10% heat-inactivated fetal bovine serum (FBS), 20 mM HEPES, and 50 μg/mL G418 sulfate. rM2-Gqi5, hM2-Gqi5, and hM4-Gqi5 cells were grown in the same medium also containing 500 μg/mL Hygromycin B. Stable rM4-Gqi5 cells were grown in DMEM containing 10% heat-inactivated FBS, 20 mM HEPES, 400 μg/mL G418 sulfate, and 500 μg/mL Hygromycin B.
For high throughput measurement of agonist-evoked increases in intracellular calcium, CHO-K1 cells stably expressing muscarinic receptors were plated in growth medium lacking G418 and hygromycin at 15,000 cells/20 μL/well in Greiner 384-well black-walled, tissue culture (TC)-treated, clear-bottom plates (VWR). Cells were incubated overnight at 37° C. and 5% CO2. […] Compound master plates were formatted in an 11 point CRC format (1:3 dilutions) in 100% DMSO with a starting concentration of 10 mM using the BRAVO liquid handler (Agilent). Test compound CRCs were then transferred to daughter plates (240 nL) using the Echo acoustic plate reformatter (Labcyte, Sunnyvale, Calif.) and then diluted into assay buffer (40 μL) to a 2× stock using a Thermo Fisher Combi (Thermo Fisher Scientific, Waltham, Mass.).
Calcium flux was measured using the Functional Drug Screening System (FDSS) 6000 (Hamamatsu Corporation, Tokyo, Japan) as an increase in the fluorescent static ratio. Compounds were applied to cells (20 μL, 2×) using the automated system of the FDSS 6000 at 4 s into the 300 s protocol and the data were collected at 1 Hz. […] Agonist activity was analyzed as a concentration-dependent increase in calcium mobilization upon compound addition. Positive allosteric modulator activity was analyzed as a concentration-dependent increase in the EC20 acetylcholine response. Antagonist activity was analyzed as a concentration-dependent decrease in the EC80 acetylcholine response. Concentration-response curves were generated using a four-parameter logistical equation in XLfit curve fitting software (IDBS, Bridgewater, N.J.) for Excel (Microsoft, Redmond, Wash.) or Prism (GraphPad Software, Inc., San Diego, Calif.).
The calcium mobilization assay was also used to determine “efficacy”. In the context of the assays carried out for the data in Table I, “efficacy” (% ACh at 30 μM) is defined as the maximal response in the calcium flux as determined by the sigmoidal curve fit of the concentration response curve, or in the absence of an acceptable curve fit, the response recorded at 30 μM test compound, stated as a percentage of the response elicited by a concentration of Ach that induces approximately 80% of a maximal (i.e. saturating) ACh response.

SMILES	EC50 [µM]	Efficacy (% ACh maximum at 30 μM) [%]
Cc1cc(NC(=O)CS(=O)(=O)c2cn(Cc3ccc(F)cc3F)c3ccccc23)no1 [compound 49, 2-{1-[(2,4-difluorophenyl)methyl]-1H-indole-3-sulfonyl}-N-(5-methyl-1,2-oxazol-3-yl)acetamide]	> 10	
O=C(CS(=O)(=O)c1cn(Cc2cccc(Br)c2)c2cc(F)cc(F)c12)Nc1cncs1 [compound 38, 2-((1-(3-bromobenzyl)-4,6-difluoro-1H-indol-3-yl)sulfonyl)-N-(thiazol-5-yl)acetamide]	> 10	49
Cc1cc(NC(=O)CS(=O)(=O)c2cn(Cc3cccc(-c4ccncc4)c3)c3cc(F)cc(F)c23)no1 [compound 2, 2-((4,6-difluoro-1-(3-(pyridin-4-yl)benzyl)-1H-indol-3-yl)sulfonyl)-N-(5-methylisoxazol-3-yl)acetamide]	1.2	66
O=C(CS(=O)(=O)c1cn(Cc2cccc(Br)c2)c2cc(F)cc(F)c12)Nc1ccccn1 [compound 6, 2-((1-(3-bromobenzyl)-4,6-difluoro-1H-indol-3-yl)sulfonyl)-N-(pyridin-2-yl)acetamide]	2.4	62
Cc1cc(NC(=O)C(C)S(=O)(=O)c2cn(Cc3cc(Br)ccc3F)c3ccccc23)no1 (centres unmarked) [compound 63, 2-{1-[(5-bromo-2-fluorophenyl)methyl]-1H-indole-3-sulfonyl}-N-(5-methyl-1,2-oxazol-3-yl)propanamide]	> 10	
O=C(CS(=O)(=O)c1cn(Cc2cccc(Br)c2)c2cc(F)cc(F)c12)Nc1cccnc1 [compound 35, 2-((1-(3-bromobenzyl)-4,6-difluoro-1H-indol-3-yl)sulfonyl)-N-(pyridin-3-yl)acetamide]	> 10	42
Cc1cc(NC(=O)CS(=O)(=O)c2cn(Cc3ccc(OC(F)(F)F)cc3)c3ccccc23)no1 [compound 57, N-(5-methyl-1,2-oxazol-3-yl)-2-(1-{[4-(trifluoromethoxy)phenyl]methyl}-1H-indole-3-sulfonyl)acetamide]	> 10	
Cc1cc(NC(=O)CS(=O)(=O)c2cn(Cc3cc(Br)cc(Br)c3)c3ccccc23)no1 [compound 68, 2-{1-[(3,5-dibromophenyl)methyl]-1H-indole-3-sulfonyl}-N-(5-methyl-1,2-oxazol-3-yl)acetamide]	> 10	
Cc1cc(NC(=O)CS(=O)(=O)c2cn(Cc3cc(-c4cn[nH]c4)ccc3F)c3ccccc23)no1 [compound 15, 2-((1-(2-fluoro-5-(1H-pyrazol-4-yl)benzyl)-1H-indol-3-yl)sulfonyl)-N-(5-methylisoxazol-3-yl)acetamide]	3.07	96
Cc1cc(NC(=O)CS(=O)(=O)c2cn(Cc3cccc(-c4ccc(N5CCCC5)nc4)c3)c3ccccc23)no1 [compound 67, N-(5-methyl-1,2-oxazol-3-yl)-2-[1-({3-[6-(pyrrolidin-1-yl)pyridin-3-yl]phenyl}methyl)-1H-indole-3-sulfonyl]acetamide]	> 10	
COc1ncccc1-c1cccc(Cn2cc(S(=O)(=O)CC(=O)Nc3ccccn3)c3c(F)cc(F)cc32)c1 [compound 40, 2-((4,6-difluoro-1-(3-(2-methoxypyridin-3-yl)benzyl)-1H-indol-3-yl)sulfonyl)-N-(pyridin-2-yl)acetamide]	> 10	37
Cc1cc(NC(=O)C(Cc2ccccc2F)S(=O)(=O)c2cn(Cc3ccccc3F)c3ccccc23)no1 (centres unmarked) [compound 66, 3-(2-fluorophenyl)-2-{1-[(2-fluorophenyl)methyl]-1H-indole-3-sulfonyl}-N-(5-methyl-1,2-oxazol-3-yl)propanamide]	> 10	
Cc1cc(NC(=O)CS(=O)(=O)c2cn(Cc3cccc(C(F)(F)F)c3)c3ccccc23)no1 [compound 54, N-(5-methyl-1,2-oxazol-3-yl)-2-(1-{[3-(trifluoromethyl)phenyl]methyl}-1H-indole-3-sulfonyl)acetamide]	> 10	
COc1ccc(-c2cccc(Cn3cc(S(=O)(=O)CC(=O)Nc4ccccn4)c4c(F)cc(F)cc43)c2)cn1 [compound 16, 2-((4,6-difluoro-1-(3-(6-methoxypyridin-3-yl)benzyl)-1H-indol-3-yl)sulfonyl)-N-(pyridin-2-yl)acetamide]	3.3	42
Cc1cc(NC(=O)CS(=O)(=O)c2cn(Cc3cccc(-c4ccc(N5CCNCC5)nc4)c3)c3ccccc23)no1 [compound 70, N-(5-methyl-1,2-oxazol-3-yl)-2-[1-({3-[6-(piperazin-1-yl)pyridin-3-yl]phenyl}methyl)-1H-indole-3-sulfonyl]acetamide]	> 10	
O=C(CS(=O)(=O)c1cn(Cc2cccc(-c3cncnc3)c2)c2cc(F)cc(F)c12)Nc1ccccn1 [compound 36, 2-((4,6-difluoro-1-(3-(pyrimidin-5-yl)benzyl)-1H-indol-3-yl)sulfonyl)-N-(pyridin-2-yl)acetamide]	> 10	45
Cc1cc(NC(=O)CSc2cn(Cc3ccccc3Cl)c3ccccc23)no1 [compound 42, 2-({1-[(2-chlorophenyl)methyl]-1H-indol-3-yl}sulfanyl)-N-(5-methyl-1,2-oxazol-3-yl)acetamide]	> 10	

The next lines start with the values.

EC50 [µM]	Efficacy (% ACh maximum at 30 μM) [%]	SMILES
5.82	96	Cc1cc(NC(=O)CS(=O)(=O)c2cn(Cc3cccc(Cl)c3)c3ccccc23)no1 [compound 32, 2-((1-(3-chlorobenzyl)-1H-indol-3-yl)sulfonyl)-N-(5-methylisoxazol-3-yl)acetamide]
3.5	36	O=C(CS(=O)(=O)c1cn(Cc2cccc(-c3ccnc(F)c3)c2)c2cc(F)cc(F)c12)Nc1ccccn1 [compound 20, 2-((4,6-difluoro-1-(3-(2-fluoropyridin-4-yl)benzyl)-1H-indol-3-yl)sulfonyl)-N-(pyridin-2-yl)acetamide]
2.4	63	O=C(CS(=O)(=O)c1cn(Cc2cccc(Br)c2)c2cc(F)cc(F)c12)Nc1cccnn1 [compound 7, 2-((1-(3-bromobenzyl)-4,6-difluoro-1H-indol-3-yl)sulfonyl)-N-(pyridazin-3-yl)acetamide]
2.8	53	[N-]=[N+]=Nc1cccc(Cn2cc(S(=O)(=O)CC(=O)Nc3ccccn3)c3c(F)cc(F)cc32)c1 [compound 13, 2-((1-(3-azidobenzyl)-4,6-difluoro-1H-indol-3-yl)sulfonyl)-N-(pyridin-2-yl)acetamide]
> 10		Cc1cc(NC(=O)CS(=O)(=O)c2cn(Cc3ccc(Cl)c(Cl)c3)c3ccccc23)no1 [compound 55, 2-{1-[(3,4-dichlorophenyl)methyl]-1H-indole-3-sulfonyl}-N-(5-methyl-1,2-oxazol-3-yl)acetamide]
5.6	69	Nc1cccc(Cn2cc(S(=O)(=O)CC(=O)Nc3ccccn3)c3c(F)cc(F)cc32)c1 [compound 31, 2-((1-(3-aminobenzyl)-4,6-difluoro-1H-indol-3-yl)sulfonyl)-N-(pyridin-2-yl)acetamide]
2.19	90	Cc1cc(NC(=O)CS(=O)(=O)c2cn(Cc3cccc(-c4cn[nH]c4)c3)c3ccccc23)no1 [compound 5, 2-((1-(3-(1H-pyrazol-4-yl)benzyl)-1H-indol-3-yl)sulfonyl)-N-(5-methylisoxazol-3-yl)acetamide]
